PubChem BioAssay AID248 (DTP/NCI, 2004)
Toxic doses and inconclusive results are not listed. Cut-off read from the data, not from the text of the source: active = T/C of 150% or more; inactive = T/C below 125%.

System: L1210 leukemia ip in BDF1 mice, survival T/C
Assay: NCI In Vivo Anticancer Drug Screen. Data for tumor model L1210 Leukemia (intraperitoneal) in B6D2F1 (BDF1) mice
Conditions: higher = longer survival
Outline: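 In this screen, tumor-bearing mice given compound are compared to those given vehicle, and their survival values are reported as a treated-to-control quotient.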

[1] = endpoint: mean survival time, dose: 200.0 mg/kg/injection, schedule: Q04DX003 (ip), vehicle: Klucel (hydroxypropylcellulose) (HPC)
[2] = endpoint: mean survival time, dose: 100.0 mg/kg/injection, schedule: Q04DX003 (ip), vehicle: Klucel (hydroxypropylcellulose) (HPC)

Measured: T/C

COc1cc(N)c2ncsc2c1
inactive: endpoint: mean survival time, dose: 100.0 mg/kg/injection, schedule: Q01DX009 (ip), vehicle: saline 97 % of control | endpoint: mean survival time, dose: 100.0 mg/kg/injection, schedule: Q04DX002 (ip), vehicle: Klucel (hydroxypropylcellulose) (HPC) 94 % of control | endpoint: mean survival time, dose: 200.0 mg/kg/injection, schedule: Q01DX009 (ip), vehicle: saline 102 % of control | endpoint: mean survival time, dose: 200.0 mg/kg/injection, schedule: Q04DX002 (ip), vehicle: Klucel (hydroxypropylcellulose) (HPC) 88 % of control | endpoint: mean survival time, dose: 400.0 mg/kg/injection, schedule: Q04DX002 (ip), vehicle: Klucel (hydroxypropylcellulose) (HPC) 91 % of control

Cc1cccc(N2C(=O)C3C(C2=O)C2(Cl)C(Cl)=C(Cl)C3(Cl)C2(Cl)Cl)c1C (configuration not stated)
inactive: endpoint: mean survival time, dose: 3.0 mg/kg/injection, schedule: Q01DX009 (ip), vehicle: Klucel (hydroxypropylcellulose) (HPC) 96 % of control | endpoint: mean survival time, dose: 6.0 mg/kg/injection, schedule: Q01DX009 (ip), vehicle: Klucel (hydroxypropylcellulose) (HPC) 102 % of control | endpoint: mean survival time, dose: 12.5 mg/kg/injection, schedule: Q01DX009 (ip), vehicle: Klucel (hydroxypropylcellulose) (HPC) 111 % of control | endpoint: mean survival time, dose: 25.0 mg/kg/injection, schedule: Q01DX009 (ip), vehicle: Klucel (hydroxypropylcellulose) (HPC) 107 % of control | endpoint: mean survival time, dose: 50.0 mg/kg/injection, schedule: Q01DX009 (ip), vehicle: Klucel (hydroxypropylcellulose) (HPC) 103 % of control

Cc1ccc2c(ccc(/C=C/c3ccc(O)c4ncccc34)[n+]2C)c1
inactive: endpoint: mean survival time, dose: 22.0 mg/kg/injection, schedule: Q01DX009 (ip), vehicle: Klucel (hydroxypropylcellulose) (HPC) 115 % of control | endpoint: mean survival time, dose: 33.0 mg/kg/injection, schedule: Q01DX009 (ip), vehicle: Klucel (hydroxypropylcellulose) (HPC) 117 % of control | endpoint: mean survival time, dose: 100.0 mg/kg/injection, schedule: Q01DX001 (ip), vehicle: carboxymethylcellulose (CMC) 108 % of control | endpoint: mean survival time, dose: 200.0 mg/kg/injection, schedule: Q01DX001 (ip), vehicle: carboxymethylcellulose (CMC) 124 % of control | [1] 98 % of control | endpoint: mean survival time, dose: 400.0 mg/kg/injection, schedule: Q01DX001 (ip), vehicle: carboxymethylcellulose (CMC) 124 % of control

CCCCCCC(=O)O[C@H]1CC[C@H]2[C@@H]3CCC4=CC(=O)CC[C@]4(C)[C@H]3CC[C@]12C
inactive: endpoint: median survival time, dose: 2.0 mg/kg/injection, schedule: Q04DX024 (ip), vehicle: other 94 % of control | endpoint: median survival time, dose: 4.0 mg/kg/injection, schedule: Q01DX016 (ip), vehicle: other 92 % of control | endpoint: median survival time, dose: 4.0 mg/kg/injection, schedule: Q04DX024 (ip), vehicle: other 94 % of control | endpoint: median survival time, dose: 8.0 mg/kg/injection, schedule: Q01DX008 (ip), vehicle: other 95 % of control | endpoint: median survival time, dose: 8.0 mg/kg/injection, schedule: Q01DX009 (ip), vehicle: other 98 % of control | endpoint: median survival time, dose: 8.0 mg/kg/injection, schedule: Q01DX016 (ip), vehicle: other 92 % of control | endpoint: median survival time, dose: 8.0 mg/kg/injection, schedule: Q04DX024 (ip), vehicle: other 91 % of control | endpoint: median survival time, dose: 16.0 mg/kg/injection, schedule: Q01DX008 (ip), vehicle: other 95 % of control | endpoint: median survival time, dose: 16.0 mg/kg/injection, schedule: Q01DX009 (ip), vehicle: other 97 % of control | endpoint: median survival time, dose: 16.0 mg/kg/injection, schedule: Q01DX016 (ip), vehicle: other 90 % of control | endpoint: median survival time, dose: 16.0 mg/kg/injection, schedule: Q04DX003 (ip), vehicle: other 98 % of control | endpoint: median survival time, dose: 16.0 mg/kg/injection, schedule: Q04DX024 (ip), vehicle: other 94 % of control | endpoint: median survival time, dose: 32.0 mg/kg/injection, schedule: Q01DX008 (ip), vehicle: other 112 % of control | endpoint: median survival time, dose: 32.0 mg/kg/injection, schedule: Q01DX009 (ip), vehicle: other 111 % of control | endpoint: median survival time, dose: 32.0 mg/kg/injection, schedule: Q01DX016 (ip), vehicle: other 95 % of control | endpoint: median survival time, dose: 32.0 mg/kg/injection, schedule: Q04DX003 (ip), vehicle: other 100 % of control | endpoint: median survival time, dose: 32.0 mg/kg/injection, schedule: Q04DX024 (ip), vehicle: other 92 % of control | endpoint: median survival time, dose: 32.0 mg/kg/injection, schedule: Q08DX002 (ip), vehicle: other 102 % of control | endpoint: median survival time, dose: 64.0 mg/kg/injection, schedule: Q01DX001 (ip), vehicle: other 98 % of control | endpoint: median survival time, dose: 64.0 mg/kg/injection, schedule: Q01DX008 (ip), vehicle: other 91 % of control | endpoint: median survival time, dose: 64.0 mg/kg/injection, schedule: Q01DX009 (ip), vehicle: other 92 % of control | endpoint: median survival time, dose: 64.0 mg/kg/injection, schedule: Q01DX016 (ip), vehicle: other 89 % of control | endpoint: median survival time, dose: 64.0 mg/kg/injection, schedule: Q04DX003 (ip), vehicle: other 107 % of control | endpoint: median survival time, dose: 64.0 mg/kg/injection, schedule: Q08DX002 (ip), vehicle: other 98 % of control | endpoint: median survival time, dose: 128.0 mg/kg/injection, schedule: Q01DX001 (ip), vehicle: other 104 % of control | endpoint: median survival time, dose: 128.0 mg/kg/injection, schedule: Q01DX009 (ip), vehicle: other 97 % of control | endpoint: median survival time, dose: 128.0 mg/kg/injection, schedule: Q04DX003 (ip), vehicle: other 101 % of control | endpoint: median survival time, dose: 128.0 mg/kg/injection, schedule: Q08DX002 (ip), vehicle: other 101 % of control | endpoint: median survival time, dose: 256.0 mg/kg/injection, schedule: Q01DX001 (ip), vehicle: other 122 % of control | endpoint: median survival time, dose: 256.0 mg/kg/injection, schedule: Q01DX009 (ip), vehicle: other 106 % of control | endpoint: median survival time, dose: 256.0 mg/kg/injection, schedule: Q04DX003 (ip), vehicle: other 102 % of control | endpoint: median survival time, dose: 256.0 mg/kg/injection, schedule: Q08DX002 (ip), vehicle: other 104 % of control | endpoint: median survival time, dose: 512.0 mg/kg/injection, schedule: Q01DX001 (ip), vehicle: other 101 % of control | endpoint: median survival time, dose: 512.0 mg/kg/injection, schedule: Q08DX002 (ip), vehicle: other 106 % of control

Cc1c(-c2ccccc2Br)nc2ccccc2c1C(=O)O
inactive: endpoint: mean survival time, dose: 100.0 mg/kg/injection, schedule: Q01DX001 (ip), vehicle: saline 96 % of control | endpoint: mean survival time, dose: 200.0 mg/kg/injection, schedule: Q01DX001 (ip), vehicle: saline 89 % of control

CCOC(=O)c1cnc(C)nc1Nc1ccccc1F
inactive: [2] 105 % of control | [1] 104 % of control

CC12c3ccccc3C(c3c1ccc1ccccc31)C1C(=O)OC(=O)C12 (configuration not stated)
inactive: [2] 96 % of control | [1] 104 % of control | endpoint: mean survival time, dose: 400.0 mg/kg/injection, schedule: Q04DX003 (ip), vehicle: Klucel (hydroxypropylcellulose) (HPC) 98 % of control
